These results are taken from patent publication US20230279001A1, “IMIDAZO[1,2-A]PYRIDINE COMPOUNDS FOR THE TREATMENT OF AUTOIMMUNE DISEASE” (Hoffmann-La Roche Inc., priority 2020, published 2023).

Data set [1] in a line: Parallel Artificial Membrane Permeability Assay (PAMPA). The data set is classed as in vitro ADME. The settings on record: for Membrane Retention / Papp at 4 h: PAMPA, pH 7.40, 4 hours; for Papp at 4 h: pH 7.4, room temperature, read-out: PAMPA Pe; for PAMPA category: classified by Pe and membrane retention. How it is done:
PAMPA (Parallel Artificial Membrane Permeability Assay) is a first-line permeability screen for drug candidates. This assay mimics the transcellular absorption conditions using an artificial phospholipid membrane and generates a permeability value that can be used for compound ranking and optimization as well as input parameters for in silico models to predict intestinal absorption.
Permeation experiments are carried out in hydrophobic PVDF 96-well microtiter filter plates (MultiScreen Filter Plate, Millipore, #MAIPN4550). Each well is coated with PVDF membrane, which is prepared with 5 μL Dodecane (Sigma, D221104) that contains 1% lecithin (Sigma, P3556-1G).
The typical PAMPA experimental protocol is as follows: The donor plate is placed on a Teflon acceptor plate that has been pre-filled with […] of 100 mM PBS buffer (2.6 g KH2PO4 and 18.5 g K2HPO4·3H2O are dissolved in about 1000 mL of ultra-pure water and mixed thoroughly. The pH is adjusted to 7.40±0.05, using either 1 M sodium hydroxide or 1M hydrochloric acid) containing 5% DMSO. The filter on the bottom of each acceptor well is filled with 300 μL of 100 mM PBS buffer (2.6 g KH2PO4 and 18.5 g K2HPO4·3H2O are dissolved in about 1000 mL of ultra-pure water, mixed thoroughly. The pH was adjusted to 7.40±0.05, using either 1 M sodium hydroxide or 1M hydrochloric acid). The resulting sandwich is incubated at room temperature under constant shaking (300 rpm) for 4 hours. The sandwich is then disassembled. Before incubation, spike 20 μL dosing solution and mix with 250 μL PBS and 130 μL quench solution (acetonitrile) as TO sample. After incubation, collect 270 μL solutions from acceptor chamber, followed by the addition of 130 μL acetonitrile. Collect 20 μL solution from donor chamber and add 250 μL PBS and 130 μL acetonitrile. The concentration of compound in all samples are determined by LC-MS/MS and the equations for determining the permeability (Pe, 10^−6 cm/s) are as follows.
VD is the volume of the donor well; VR is the volume of the acceptor well; Area is the active surface area of membrane; Time is the incubation time (14,400 s in this assay); CR and CD are the concentrations of compound in acceptor and donor solutions, respectively, at the completion of the assay; C0 is the concentration of compound in donor solution before incubation.
The main readout of the PAMPA assay is the permeability value Pe expressed in 10^−6 cm/s. Secondary readouts determined are the amounts of compound in the donor and acceptor compartments as well as compound retention in the membrane. Depending on the permeation rate and the membrane retention, compounds are classified as “low” (Pe<0.2 and membrane retention<20%) or “medium & high” (Pe>=0.2; or Pe<0.2 and membrane retention>=20%). Each sample is measured in triplicate; the standard deviation is determined for the permeation constant Pe.
(In general: The PAMPA barrier holds no transporters, so it reflects passive diffusion.)

For the next data set, the target named is TLR9 (Homo sapiens (Human), UniProt Q9NR96). Kind of data set: HEK293-Blue-hTLR-9 cells assay. The data set is classed as cell-based. The following applies: HEK293-Blue-hTLR9 cells, ODN2006 stimulation, 20 hrs, SEAP reporter; read-out: HEK/hTLR9 IC50. An excerpt:
A stable HEK293-Blue-hTLR-9 cell line was purchased from InvivoGen (Cat. #: hkb-htlr9, San Diego, Calif., USA). These cells were originally designed for studying the stimulation of human TLR9 by monitoring the activation of NF-κB. A SEAP (secreted embryonic alkaline phosphatase) reporter gene was placed under the control of the IFN-β minimal promoter fused to five NF-κB and AP-1-binding sites. The SEAP was induced by activating NF-κB and AP-1 via stimulating HEK-Blue hTLR9 cells with TLR9 ligands. Therefore the reporter expression was declined by TLR9 antagonist under the stimulation of a ligand, such as ODN2006 (Cat. #: tlr1-2006-1, Invivogen, San Diego, Calif., USA), for incubation of 20 hrs. The cell culture supernatant SEAP reporter activity was determined using QUANTI-Blue™ kit (Cat. #: rep-qb1, Invivogen, San Diego, Calif., USA) at a wavelength of 640 nm, a detection medium that turns purple or blue in the presence of alkaline phosphatase.
HEK293-Blue-hTLR9 cells were incubated at a density of 250,000˜450,000 cells/mL in a volume of 170 μL in a 96-well plate in Dulbecco's Modified Eagle's medium (DMEM) containing 4.5 g/L glucose, 50 U/mL penicillin, […], 2 mM L-glutamine, 10% (v/v) heat-inactivated fetal bovine serum with addition of 20 μL test compound in a serial dilution in the presence of final DMSO at 1% and 10 μL, of 20 uM ODN2006 in above DMEM, perform incubation under 37° C. in a CO2 incubator for 20 hrs. Then 20 μL of the supernatant from each well was incubated with 180 μL, Quanti-blue substrate solution at 37° C. for 2 h and the absorbance was read at 620655 nm using a spectrophotometer. The signaling pathway that TLR9 activation leads to downstream NF-κB activation has been widely accepted, and therefore similar reporter assay was modified for evaluating TLR9 antagonist.

TLR9, sequence (Q9NR96 26-1032): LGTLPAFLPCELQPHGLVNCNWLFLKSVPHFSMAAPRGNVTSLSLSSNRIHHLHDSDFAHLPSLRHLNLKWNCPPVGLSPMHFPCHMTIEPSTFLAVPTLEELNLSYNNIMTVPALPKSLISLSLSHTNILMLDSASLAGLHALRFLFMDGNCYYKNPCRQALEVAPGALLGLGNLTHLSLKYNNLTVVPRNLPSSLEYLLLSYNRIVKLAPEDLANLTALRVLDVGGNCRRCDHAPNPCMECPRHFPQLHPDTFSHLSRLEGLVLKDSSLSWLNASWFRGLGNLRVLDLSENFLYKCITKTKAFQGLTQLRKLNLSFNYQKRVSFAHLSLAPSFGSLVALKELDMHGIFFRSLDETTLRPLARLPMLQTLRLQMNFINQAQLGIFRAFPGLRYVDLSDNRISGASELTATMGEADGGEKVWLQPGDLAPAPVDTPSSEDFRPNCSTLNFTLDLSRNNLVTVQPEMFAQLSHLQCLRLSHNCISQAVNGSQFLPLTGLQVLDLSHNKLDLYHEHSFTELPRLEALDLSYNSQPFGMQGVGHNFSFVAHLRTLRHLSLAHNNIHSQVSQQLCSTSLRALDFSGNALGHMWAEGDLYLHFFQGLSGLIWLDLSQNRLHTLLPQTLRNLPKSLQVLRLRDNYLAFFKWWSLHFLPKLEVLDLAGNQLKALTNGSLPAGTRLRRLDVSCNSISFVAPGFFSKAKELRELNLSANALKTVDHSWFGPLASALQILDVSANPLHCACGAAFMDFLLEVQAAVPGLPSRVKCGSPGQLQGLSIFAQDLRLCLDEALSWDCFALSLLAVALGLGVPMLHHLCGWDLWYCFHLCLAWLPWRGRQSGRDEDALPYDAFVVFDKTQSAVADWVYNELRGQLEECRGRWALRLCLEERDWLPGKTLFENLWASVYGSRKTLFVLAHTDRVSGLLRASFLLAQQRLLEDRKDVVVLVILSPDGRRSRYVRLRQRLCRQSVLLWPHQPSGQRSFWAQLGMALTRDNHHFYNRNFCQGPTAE

As for `CCc1nc(N2CCC(N3CCNCC3)CC2)ccc1-c1cc(C)c2nc(C)cn2c1` [Example 21, 6-[2-ethyl-6-(4-piperazin-1-yl-1-piperidyl)-3-pyridyl]-2,8-dimethyl-imidazo[1,2-a]pyridine], in data set [1], the “Membrane Retention” value came to 28%; the Papp at 4 h was determined as 0.73 ×10⁻⁶ cm/s; the PAMPA category result was “medium & high (“medium & high” (Pe>=0.2; or Pe<0.2 and membrane retention>=20%))”. Moreover, the IC50 on TLR9 amounted to 140 nM.

In the case of `CCc1cc(-c2cc(C)c3nccn3c2)cnc1N1CCC2(CCNCC2)CC1` [Example 22, 3-[3-ethyl-5-(8-methylimidazo[1,2-a]pyridin-6-yl)-2-pyridyl]-3,9-diazaspiro[5.5]undecane], in data set [1], the “Membrane Retention” value is recorded as 26.45%; the Papp at 4 h came to 0.5 ×10⁻⁶ cm/s; the PAMPA category result is “medium & high (“medium & high” (Pe>=0.2; or Pe<0.2 and membrane retention>=20%))”. Also, the IC50 on TLR9 was 132 nM.
